30 molecules from US11891365B2, “3-alkyl-4-amido-bicyclic [4,5,0] hydroxamic acids as HDAC inhibitors” (Valo Health, Inc., priority 2015, dated 2024) can be followed below.

The assay has as its target T1, Full length human recombinant HDAC6 protein (Homo sapiens, UniProt Q9UBN7).
T1 sequence (Q9UBN7 1-1215): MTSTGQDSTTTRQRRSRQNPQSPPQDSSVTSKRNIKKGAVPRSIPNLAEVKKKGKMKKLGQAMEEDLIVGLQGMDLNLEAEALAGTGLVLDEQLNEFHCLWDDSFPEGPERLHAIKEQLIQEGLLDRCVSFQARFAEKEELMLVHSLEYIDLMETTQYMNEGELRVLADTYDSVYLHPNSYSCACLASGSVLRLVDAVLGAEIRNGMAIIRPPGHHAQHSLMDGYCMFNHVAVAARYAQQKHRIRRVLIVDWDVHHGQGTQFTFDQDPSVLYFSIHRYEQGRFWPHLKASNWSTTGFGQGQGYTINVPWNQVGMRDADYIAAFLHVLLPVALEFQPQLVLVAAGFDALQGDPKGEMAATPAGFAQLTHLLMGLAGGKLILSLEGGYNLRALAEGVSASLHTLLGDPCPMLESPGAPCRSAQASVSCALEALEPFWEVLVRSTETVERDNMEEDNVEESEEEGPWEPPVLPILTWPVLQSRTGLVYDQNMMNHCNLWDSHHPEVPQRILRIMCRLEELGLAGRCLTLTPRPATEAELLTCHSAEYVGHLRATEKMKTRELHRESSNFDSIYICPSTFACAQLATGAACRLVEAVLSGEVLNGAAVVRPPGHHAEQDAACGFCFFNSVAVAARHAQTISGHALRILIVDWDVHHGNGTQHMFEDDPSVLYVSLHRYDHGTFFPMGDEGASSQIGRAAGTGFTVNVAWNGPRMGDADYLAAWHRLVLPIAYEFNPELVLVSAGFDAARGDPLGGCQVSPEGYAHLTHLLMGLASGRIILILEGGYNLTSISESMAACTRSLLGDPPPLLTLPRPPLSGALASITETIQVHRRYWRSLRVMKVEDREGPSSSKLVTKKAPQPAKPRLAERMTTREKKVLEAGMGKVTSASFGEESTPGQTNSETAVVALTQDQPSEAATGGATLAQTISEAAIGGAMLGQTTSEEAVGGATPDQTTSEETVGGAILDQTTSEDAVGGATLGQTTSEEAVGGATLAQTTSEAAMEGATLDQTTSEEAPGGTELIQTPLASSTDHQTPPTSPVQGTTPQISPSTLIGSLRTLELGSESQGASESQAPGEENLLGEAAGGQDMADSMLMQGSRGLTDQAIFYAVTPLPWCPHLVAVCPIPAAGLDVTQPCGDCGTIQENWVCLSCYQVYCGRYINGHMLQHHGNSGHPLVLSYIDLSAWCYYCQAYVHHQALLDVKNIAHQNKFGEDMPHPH
The assay can be described thus: In vitro histone deacetylase assay: enzymatic HDAC6 electrophoretic mobility shift assay. The settings on record: 1 nM enzyme, 2 μM peptide substrate RHKK(Ac)-NH2, 25° C., 12 concentrations; read-out: Inhibitory Concentration (IC50) Values against HDAC6, Activity Range. The assay is classed as biochemical. For orientation: Mobility shift assays separate free from complexed probe on a gel.

The structures appear in SMILES notation.

As for `O=CN1CCOc2cc(C(=O)NO)ccc2C1` [4-formyl-N-hydroxy-2,3,4,5-tetrahydrobenzo[f][1,4]oxazepine-8-carboxamide], the IC50 is no more than 100 nM.

Consider `O=C(NO)c1cnc2c(n1)OCCN(C(=O)C1CCCCC1)C2` [8-(cyclohexanecarbonyl)-N-hydroxy-6,7,8,9-tetrahydropyrazino[2,3-f][1,4]oxazepine-3-carboxamide], for which the IC50 is no more than 100 nM.

With `O=C(NO)c1ccc2c(c1)O[C@@H]1C[C@H]2N(C(=O)C2CCOCC2)C1` [(2R,5R)-N-hydroxy-4-(tetrahydro-2H-pyran-4-carbonyl)-2,3,4,5-tetrahydro-2,5-methanobenzo[f][1,4]oxazepine-8-carboxamide], the IC50 was in the range of 100 to 500 nM.

For the molecule `O=C(NO)c1ccc2c(c1)O[C@H]1C[C@@H]2N(C(=O)C2CCOCC2)C1` [(2S,5S)-N-hydroxy-4-(tetrahydro-2H-pyran-4-carbonyl)-2,3,4,5-tetrahydro-2,5-methanobenzo[f][1,4]oxazepine-8-carboxamide], the IC50 was greater than 500 nM.

In the case of `C[C@H]1COc2cc(C(=O)NO)ccc2CN1C(=O)C1CCS(=O)(=O)C1` (stereo partly drawn) [(3S)-4-(1,1-dioxidotetrahydrothiophene-3-carbonyl)-N-hydroxy-3-methyl-2,3,4,5-tetrahydrobenzo[f][1,4]oxazepine-8-carboxamide], the IC50 was no more than 100 nM.

`CC(=O)N1CCC(C(=O)N2Cc3ccc(C(=O)NO)cc3OC[C@@H]2C)C1` (stereo partly drawn) [(3S)-4-(1-acetylpyrrolidine-3-carbonyl)-N-hydroxy-3-methyl-2,3,4,5-tetrahydrobenzo[f][1,4]oxazepine-8-carboxamide]: the IC50 is no more than 100 nM.

For `CC1CC(C(=O)N2Cc3ccc(C(=O)NO)cc3OC[C@@H]2C)CC(C)O1` (stereo partly drawn) [(3S)-4-(2,6-dimethyltetrahydro-2H-pyran-4-carbonyl)-N-hydroxy-3-methyl-2,3,4,5-tetrahydrobenzo[f][1,4]oxazepine-8-carboxamide], the IC50 was no more than 100 nM.

Turning to `C[C@H]1COc2cc(C(=O)NO)ccc2CN1C(=O)C1CCC(C)(C)O1` (stereo partly drawn) [(3S)-4-(5,5-dimethyltetrahydrofuran-2-carbonyl)-N-hydroxy-3-methyl-2,3,4,5-tetrahydrobenzo[f][1,4]oxazepine-8-carboxamide], the IC50 is no more than 100 nM.

With `C[C@H]1COc2cc(C(=O)NO)ccc2CN1C(=O)C1CC2CCC(C1)O2` (stereo partly drawn) [(3S)-4-(8-oxabicyclo[3.2.1]octane-3-carbonyl)-N-hydroxy-3-methyl-2,3,4,5-tetrahydrobenzo[f][1,4]oxazepine-8-carboxamide], the IC50 was no more than 100 nM.

As to `C[C@H]1COc2cc(C(=O)NO)ccc2CN1C(=O)[C@@H]1CC2CCC1O2` (stereo partly drawn) [(3S)-4-((2R)-7-oxabicyclo[2.2.1]heptane-2-carbonyl)-N-hydroxy-3-methyl-2,3,4,5-tetrahydrobenzo[f][1,4]oxazepine-8-carboxamide], the IC50 is no more than 100 nM.

Consider `C[C@H]1COc2cc(C(=O)NO)ccc2CN1C(=O)[C@H]1CC2CCC1O2` (stereo partly drawn) [(3S)-4-((2S)-7-oxabicyclo[2.2.1]heptane-2-carbonyl)-N-hydroxy-3-methyl-2,3,4,5-tetrahydrobenzo[f][1,4]oxazepine-8-carboxamide], for which the IC50 was no more than 100 nM.

For `C[C@H]1COc2cc(C(=O)NO)ccc2CN1C(=O)CC1CCCO1` (stereo partly drawn) [(3S)-N-hydroxy-3-methyl-4-(2-(tetrahydrofuran-2-yl)acetyl)-2,3,4,5-tetrahydrobenzo[f][1,4]oxazepine-8-carboxamide], the IC50 is no more than 100 nM.

With `C[C@H]1COc2cc(C(=O)NO)ccc2CN1C(=O)C1(C)CCCO1` (stereo partly drawn) [(3S)-N-hydroxy-3-methyl-4-(2-methyltetrahydrofuran-2-carbonyl)-2,3,4,5-tetrahydrobenzo[f][1,4]oxazepine-8-carboxamide], the IC50 was no more than 100 nM.

On to `C[C@H]1COc2cc(C(=O)NO)ccc2CN1C(=O)C1CCCOCC1` (stereo partly drawn) [(3S)-N-hydroxy-3-methyl-4-(oxepane-4-carbonyl)-2,3,4,5-tetrahydrobenzo[f][1,4]oxazepine-8-carboxamide], for which the IC50 is no more than 100 nM.

`CC(C)C1OCCC1C(=O)N1Cc2ccc(C(=O)NO)cc2OC[C@@H]1C` (stereo partly drawn) [(3S)-N-hydroxy-4-(2-isopropyltetrahydrofuran-3-carbonyl)-3-methyl-2,3,4,5-tetrahydrobenzo[f][1,4]oxazepine-8-carboxamide]: the IC50 was no more than 100 nM.

For the molecule `CC(=O)N1Cc2ccc(C(=O)NO)cc2O[C@H](C)C1` [(R)-4-acetyl-N-hydroxy-2-methyl-2,3,4,5-tetrahydrobenzo[f][1,4]oxazepine-8-carboxamide], the IC50 was greater than 500 nM.

In the case of `CC(=O)N1Cc2ccc(C(=O)NO)cc2OC[C@H]1C(C)C` [(R)-4-acetyl-N-hydroxy-3-isopropyl-2,3,4,5-tetrahydrobenzo[f][1,4]oxazepine-8-carboxamide], the IC50 is 100 to 500 nM.

As for `CC(=O)N1Cc2ccc(C(=O)NO)cc2OC[C@H]1C` [(R)-4-acetyl-N-hydroxy-3-methyl-2,3,4,5-tetrahydrobenzo[f][1,4]oxazepine-8-carboxamide], the IC50 is greater than 500 nM.

Turning to `COC[C@H]1CN(C=O)Cc2ccc(C(=O)NO)cc2O1` [(R)-4-formyl-N-hydroxy-2-(methoxymethyl)-2,3,4,5-tetrahydrobenzo[f][1,4]oxazepine-8-carboxamide], the IC50 is no more than 100 nM.

As to `CC(C)[C@@H]1CN(C=O)Cc2ccc(C(=O)NO)cc2O1` [(R)-4-formyl-N-hydroxy-2-isopropyl-2,3,4,5-tetrahydrobenzo[f][1,4]oxazepine-8-carboxamide], the IC50 was 100 to 500 nM.

Regarding `C[C@@H]1CN(C=O)Cc2ccc(C(=O)NO)cc2O1` [(R)-4-formyl-N-hydroxy-2-methyl-2,3,4,5-tetrahydrobenzo[f][1,4]oxazepine-8-carboxamide], the IC50 was no more than 100 nM.

`O=CN1Cc2ccc(C(=O)NO)cc2O[C@H](c2ccccc2)C1` [(R)-4-formyl-N-hydroxy-2-phenyl-2,3,4,5-tetrahydrobenzo[f][1,4]oxazepine-8-carboxamide]: the IC50 is no more than 100 nM.

As for `C[C@@H]1COc2cc(C(=O)NO)ccc2CN1C=O` [(R)-4-formyl-N-hydroxy-3-methyl-2,3,4,5-tetrahydrobenzo[f][1,4]oxazepine-8-carboxamide], the IC50 is no more than 100 nM.

As to `COC[C@H]1CN(C(=O)C2(C)CCC2)Cc2ccc(C(=O)NO)cc2O1` [(R)-N-hydroxy-2-(methoxymethyl)-4-(1-methylcyclobutane-1-carbonyl)-2,3,4,5-tetrahydrobenzo[f][1,4]oxazepine-8-carboxamide], the IC50 lay within 100 to 500 nM.

Take `COC[C@H]1CN(C(=O)C2CCOCC2)Cc2ccc(C(=O)NO)cc2O1` [(R)-N-hydroxy-2-(methoxymethyl)-4-(tetrahydro-2H-pyran-4-carbonyl)-2,3,4,5-tetrahydrobenzo[f][1,4]oxazepine-8-carboxamide]: the IC50 lay in the range of 100 to 500 nM.

For the molecule `CC(C)[C@@H]1CN(C(=O)C2(C)CCC2)Cc2ccc(C(=O)NO)cc2O1` [(R)-N-hydroxy-2-isopropyl-4-(1-methylcyclobutane-1-carbonyl)-2,3,4,5-tetrahydrobenzo[f][1,4]oxazepine-8-carboxamide], the IC50 was 100 to 500 nM.

With `CC(C)[C@@H]1CN(C(=O)C2CCOCC2)Cc2ccc(C(=O)NO)cc2O1` [(R)-N-hydroxy-2-isopropyl-4-(tetrahydro-2H-pyran-4-carbonyl)-2,3,4,5-tetrahydrobenzo[f][1,4]oxazepine-8-carboxamide], the IC50 lay in the range of 100 to 500 nM.

`C[C@@H]1CN(C(=O)C2(C)CCC2)Cc2ccc(C(=O)NO)cc2O1` [(R)-N-hydroxy-2-methyl-4-(1-methylcyclobutane-1-carbonyl)-2,3,4,5-tetrahydrobenzo[f][1,4]oxazepine-8-carboxamide]: the IC50 was no more than 100 nM.

Regarding `O=C(NO)c1ccc2c(c1)O[C@H](c1ccccc1)CN(C(=O)C1CCOCC1)C2` [(R)-N-hydroxy-2-phenyl-4-(tetrahydro-2H-pyran-4-carbonyl)-2,3,4,5-tetrahydrobenzo[f][1,4]oxazepine-8-carboxamide], the IC50 is 100 to 500 nM.

`COC[C@@H]1COc2cc(C(=O)NO)ccc2CN1C(=O)C1CCOCC1` [(R)-N-hydroxy-3-(methoxymethyl)-4-(tetrahydro-2H-pyran-4-carbonyl)-2,3,4,5-tetrahydrobenzo[f][1,4]oxazepine-8-carboxamide]: the IC50 was greater than 500 nM.
